Results published in US9421163B2, “Topical compositions comprising polyunsaturated fatty acids” (Dignity Sciences Limited, priority 2009, dated 2016).

Key:
COX-2 enzymes = experiment: Immunohistochemistry assay of COX-2 enzymes in ex vivo porcine ear skin (Franz diffusion cell, diaminobenzidine staining); type: cell-based; details: substance as donor phase in Franz cell, after six hours versus 0 hours
COX-2 = experiment: Western Blotting of COX-2 expression in porcine skin after topical application; type: cell-based; details: topically applied, water control assigned 100%, FIG. 5
Description: A Western Blotting experiment was carried out to determine the effect of topically applied representative compounds of the invention DGLA and 15-HETrE on the expression of COX-2 in porcine skin. Water was used as a control.
The porcine skin membranes (as described in Example 1) were gently cleaned with de-ionised water before being homogenized (Silverson, Chesham, UK) in a RIPA lysis buffer [50 mM Tris-HCl (PH 7.4), 150 mM NaCl, 1 mM PMSF, 1 mM EDTA, 5 μg mL^−1 aprotinin, 5 μg mL^−1 leupeptin, 1% Triton X-100, 1% sodium deoxycholate, 0.1% SDS]. After 15 min incubation on ice, the lysates were clarified by centrifugation at 14000×g for 2×15 min and the supernatant stored at −80° C. for subsequent protein analysis.
Aliquots of 30 μg total protein were separated by SDS-PAGE, transferred to nitrocelullose membranes using the Trans-Blot electrophoretic Transfer Cell and briefly stained with Ponceau S to verify effective transfer. Immunoblots were incubated for 1 h in a blocking solution [tris-buffered saline (TBS)-Tween 20 containing 5% (w/v) commercial skimmed milk powder (Marvel) at room temperature. After washing, the membrane was probed overnight at 4° C. with COX-2 antibody at 1:1000, 5-LOX at 1:1000 and iNOS at 1:500 in (1:20 and 1:100 western blocking reagent and sodium azide solution respectively made up to volume with TBS tween). […]

skin = details: applied directly to the skin; Xi et al. 2000; cited from earlier work

| SMILES | amount of dark stain (diaminobenzidine, COX-2 enzymes present in the skin) (COX-2 enzymes) | COX-2 expression relative to the control (COX-2) | antiproliferative properties (skin) |
| --- | --- | --- | --- |
| CC(C(=O)O)c1cccc(C(=O)c2ccccc2)c1 (stereo not drawn) [ketoprofen, reference compound] | the amount of dark stain has reduced | – | – |
| CCCCCC(O)/C=C/C=C\C/C=C\CCCCCCC(=O)O (stereo not drawn) [15-HETrE, 15-Hydroxy-eicosa-8Z, 11Z, 13E-trienoic acid] | the amount of dark stain has reduced | significant reduction | antiproliferative properties |
| CCCCC/C=C\C/C=C\C/C=C\CCCCCCC(=O)O [DGLA, Eicosa-8Z, 11Z, 14Z-trienoic acid] | the amount of dark stain has reduced | significant reduction | – |
